Read-outs that look alike come from different tables or passages of the source.
Experiments:
[1] = biological target: T1, M4 muscarinic receptor (Homo sapiens, UniProt P08173); experiment: Functional mobilization of intracellular calcium (FLIPR, Fluo-3), M4-CHO cells; format: cell-based; details: for Emax: 100% efficacy is the maximum response obtained with the Carbachol control, read-out: M4 Efficacy
T1 construct: expressed in transfected cells; host or cells: CHO cells (M4-CHO, under puromycin, zeocin and blasticidin selection)
T1 sequence (P08173 1-479): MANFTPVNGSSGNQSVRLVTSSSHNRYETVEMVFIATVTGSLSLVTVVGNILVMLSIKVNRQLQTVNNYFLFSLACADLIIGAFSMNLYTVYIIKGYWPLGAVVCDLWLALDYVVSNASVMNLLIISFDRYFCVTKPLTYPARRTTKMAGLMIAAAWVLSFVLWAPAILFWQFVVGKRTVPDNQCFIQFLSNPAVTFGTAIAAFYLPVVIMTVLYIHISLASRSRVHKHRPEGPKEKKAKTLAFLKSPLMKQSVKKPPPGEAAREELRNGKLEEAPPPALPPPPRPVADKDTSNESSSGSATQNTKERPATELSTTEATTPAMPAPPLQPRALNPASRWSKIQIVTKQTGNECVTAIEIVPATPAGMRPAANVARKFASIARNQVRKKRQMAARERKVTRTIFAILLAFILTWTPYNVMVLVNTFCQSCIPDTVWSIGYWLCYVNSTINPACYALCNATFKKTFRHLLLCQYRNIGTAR
Outline: (§1)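 Intracellular calcium was tracked by fluorescence (488/540 nm) over 60 sec after compound addition to dye-loaded CHO cells expressing the receptor. Inhibitory activity used a 15 min pre-incubation before carbachol at the subtype EC80.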

[2] = biological target: T2, M1 muscarinic receptor (Homo sapiens, UniProt P11229); experiment: Functional mobilization of intracellular calcium (FLIPR, Fluo-3), M1-CHO cells; format: cell-based; details: for Emax: 100% efficacy is the maximum response obtained with the Carbachol control, read-out: M1 Efficacy
T2 construct: expressed in transfected cells; host or cells: CHO cells (M1-CHO, under zeocin and G418 selection)
T2 sequence (P11229 1-460): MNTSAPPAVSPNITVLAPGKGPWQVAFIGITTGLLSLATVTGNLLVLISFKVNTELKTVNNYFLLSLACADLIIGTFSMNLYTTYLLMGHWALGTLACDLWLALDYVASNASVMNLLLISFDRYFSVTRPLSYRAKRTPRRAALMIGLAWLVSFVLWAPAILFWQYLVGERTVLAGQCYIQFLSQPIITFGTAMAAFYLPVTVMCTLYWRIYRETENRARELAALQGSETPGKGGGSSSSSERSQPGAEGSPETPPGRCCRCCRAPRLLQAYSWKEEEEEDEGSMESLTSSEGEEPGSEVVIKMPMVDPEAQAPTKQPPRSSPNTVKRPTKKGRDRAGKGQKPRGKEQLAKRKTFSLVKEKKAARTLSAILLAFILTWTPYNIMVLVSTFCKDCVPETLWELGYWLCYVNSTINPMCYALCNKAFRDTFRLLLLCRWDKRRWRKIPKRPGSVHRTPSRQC
Outline: as §1

[3] = compound nos. 1-454, M4-CHO cells, calcium mobilization
[4] = compound nos. 1-454, M1-CHO cells, calcium mobilization

SMILES | Emax ([1]; compound nos. 1-454) [%] | M4 Activity [1, 3] | Emax ([2]; compound nos. 1-454) [%] | M1 Activity [2, 4] | M4 Activity ([1]; compound nos. 1-454) | M1 Activity ([2]; compound nos. 1-454) | Emax ([1]; compound nos. 455-509) [%] | M4 Activity ([1]; compounds 455-509) | Emax ([2]; compound nos. 455-509) [%] | M1 Activity ([2]; compounds 455-509)
CCOC(=O)N1CCC(N2CCC3(CC2)CN(C(=O)N(C)c2ccccc2)c2ccc(F)cc23)CC1 [compound 169] | > 70 | + (activity was measured to be greater than or equal to 4.0 μM) | 65 to 85 | +++ (activity was measured to be less than or equal to 0.7 μM) |  |  |  |  |  | 
CCOC(=O)N1C2CCC1CC(N1CCC3(CC1)CN(C(=O)NC(C)C)c1ccc(F)cc13)C2 (centres unmarked) [compound 296] | 55 to 70 | + (activity was measured to be greater than or equal to 4.0 μM) | 65 to 85 | + (activity was measured to be greater than or equal to 3.0 μM) |  |  |  |  |  | 
CC(=O)N1CC2(CCN(C3CCCN(C(=O)OC(C)C)CC3)CC2)c2cc(F)ccc21 (centres unmarked) [compound 395] | < 55 |  | < 65 |  | + (activity was measured to be greater than or equal to 4.0 μM) | +++ (activity was measured to be less than or equal to 0.7 μM) |  |  |  | 
Cc1cncc(N2CCC(N3CCC4(CC3)CN(C(=O)N(C)C)c3ccccc34)CC2)n1 [compound 478] |  |  |  |  |  |  | 25 to 100 | ++ (activity was measured to be between 2.0 μM and 5.0 μM) | > 100 | +++ (activity was measured to be less than or equal to 2.0 μM)
CC#CCOC(=O)N1CCC(N2CCC3(CC2)CN(C(=O)N(C)C)c2ccc(F)cc23)CC1 [compound 353] | 55 to 70 | + (activity was measured to be greater than or equal to 4.0 μM) | > 85 | +++ (activity was measured to be less than or equal to 0.7 μM) |  |  |  |  |  | 
Cc1ccc2c(c1)C1(CCN(C3CC4CCC3C4)CC1)CN2C(=O)c1cc(C)on1 (centres unmarked) [compound 208] | < 55 | + (activity was measured to be greater than or equal to 4.0 μM) | < 65 | ++ (activity was measured to be between 0.7 μM and 3.0 μM) |  |  |  |  |  | 
Cc1csc(N2CCC(N3CCC4(CCN(C(=O)N(C)C)c5ccccc54)CC3)CC2)n1 [compound 508] |  |  |  |  |  |  | 25 to 100 | ++ (activity was measured to be between 2.0 μM and 5.0 μM) | 25 to 100 | ++ (activity was measured to be between 2.0 μM and 5.0 μM)
CC(C)OC(=O)N1C2CCC1CC(N1CCC3(CC1)COc1ccc(F)cc13)C2 (centres unmarked) [compound 320] | < 55 | + (activity was measured to be greater than or equal to 4.0 μM) | 65 to 85 | ++ (activity was measured to be between 0.7 μM and 3.0 μM) |  |  |  |  |  | 
Clc1ccc2c(c1)C1(CCO2)CCN(C2CCCCC2)CC1 [compound 276] | 55 to 70 | + (activity was measured to be greater than or equal to 4.0 μM) | 65 to 85 | +++ (activity was measured to be less than or equal to 0.7 μM) |  |  |  |  |  | 
O=C(O[C@@H]1CCOC1)N1C2CCC1CC(N1CCC3(CC1)C(=O)Nc1ccccc13)C2 (some centres unmarked) [compound 336] | < 55 | + (activity was measured to be greater than or equal to 4.0 μM) | < 65 | + (activity was measured to be greater than or equal to 3.0 μM) |  |  |  |  |  | 
COCCOC(=O)N1CCC(CN2CCC3(CC2)CN(C(C)=O)c2ccc(F)cc23)CC1 [compound 26] | < 55 | ++ (activity was measured to be between 0.1 μM and 4.0 μM) | 65 to 85 | +++ (activity was measured to be less than or equal to 0.7 μM) |  |  |  |  |  | 
COCCOC(=O)N1CC2(CCN(C3CC4CCC(C3)N4C(=O)OC3CCC3)CC2)c2cc(F)ccc21 (centres unmarked) [compound 195] | < 55 | + (activity was measured to be greater than or equal to 4.0 μM) | < 65 | ++ (activity was measured to be between 0.7 μM and 3.0 μM) |  |  |  |  |  | 
CCOC(=O)N1C2CCC1CC(N1CCC3(CC1)CN(C(=O)OCCOC)c1ccc(F)cc13)C2 (centres unmarked) [compound 90] | < 55 | + (activity was measured to be greater than or equal to 4.0 μM) | 65 to 85 | ++ (activity was measured to be between 0.7 μM and 3.0 μM) |  |  |  |  |  | 
O=C(OC1CCCC1)N1C2CCC1CC(N1CCC3(CCc4ccccc43)CC1)C2 (centres unmarked) [compound 258] | < 55 | + (activity was measured to be greater than or equal to 4.0 μM) | 65 to 85 | + (activity was measured to be greater than or equal to 3.0 μM) |  |  |  |  |  | 
C#CCCOC(=O)N1CCC(N2CCC3(CC2)CN(C(C)=O)c2ccc(F)cc23)CC1 [compound 62] | 55 to 70 | ++ (activity was measured to be between 0.1 μM and 4.0 μM) | < 65 | +++ (activity was measured to be less than or equal to 0.7 μM) |  |  |  |  |  | 
CCc1cnc(N2CCC(N3CCC4(CC3)CN(C(=O)N(C)C)c3ccccc34)CC2)cn1 [compound 466] |  |  |  |  |  |  | 25 to 100 | ++ (activity was measured to be between 2.0 μM and 5.0 μM) | > 100 | ++ (activity was measured to be between 2.0 μM and 5.0 μM)
CN(C)C(=O)N1CC2(CCN(C3CCN(c4ncccn4)CC3)CC2)c2cc(F)ccc21 [compound 445] | 55 to 70 |  | 65 to 85 |  | +++ (activity was measured to be less than or equal to 0.1 μM) | ++ (activity was measured to be between 0.7 μM and 3.0 μM) |  |  |  | 
CS(=O)(=O)N1CC2(CCN(C3CC4CCC(C3)N4C(=O)O[C@H]3CCOC3)CC2)c2cc(F)ccc21 (some centres unmarked) [compound 388] | < 55 |  | 65 to 85 |  | + (activity was measured to be greater than or equal to 4.0 μM) | +++ (activity was measured to be less than or equal to 0.7 μM) |  |  |  | 
Clc1ccc2c(c1)C1(CCN(C3CCCCC3)CC1)CO2 [compound 5] | > 70 | +++ (activity was measured to be less than or equal to 0.1 μM) | 65 to 85 | +++ (activity was measured to be less than or equal to 0.7 μM) |  |  |  |  |  | 
CN(C)C(=O)N1CC2(CCN(C3CCN(c4cnccn4)CC3)CC2)c2ccccc21 [compound 464] |  |  |  |  |  |  | > 100 | ++ (activity was measured to be between 2.0 μM and 5.0 μM) | > 100 | +++ (activity was measured to be less than or equal to 2.0 μM)
C1=C[C@H]2C[C@H]1C[C@H]2CN1CCC2(CCc3ccccc32)CC1 [compound 313] | < 55 | + (activity was measured to be greater than or equal to 4.0 μM) | < 65 | + (activity was measured to be greater than or equal to 3.0 μM) |  |  |  |  |  | 
CC(=O)N1CCC2(CCN(C3CCN(c4cnc5ccccc5n4)CC3)CC2)c2ccccc21 [compound 456] |  |  |  |  |  |  | 25 to 100 | ++ (activity was measured to be between 2.0 μM and 5.0 μM) | > 100 | ++ (activity was measured to be between 2.0 μM and 5.0 μM)
CC(=O)N[C@H]1CC2(CCN(C3CCCCC3)CC2)c2ccccc21 [compound 196] | < 55 | + (activity was measured to be greater than or equal to 4.0 μM) | 65 to 85 | +++ (activity was measured to be less than or equal to 0.7 μM) |  |  |  |  |  | 
O=C(C1CC1)N1CC2(CCN(C3CC4CCC(C3)N4C(=O)OC3CCC3)CC2)c2cc(F)ccc21 (centres unmarked) [compound 379] | 55 to 70 |  | 65 to 85 |  | ++ (activity was measured to be between 0.1 μM and 4.0 μM) | +++ (activity was measured to be less than or equal to 0.7 μM) |  |  |  | 
Cc1ccc2c(c1)C1(CCN(CC3CCC4CCC3C4)CC1)CN2 (centres unmarked) [compound 241] | > 70 | + (activity was measured to be greater than or equal to 4.0 μM) | < 65 | ++ (activity was measured to be between 0.7 μM and 3.0 μM) |  |  |  |  |  | 
CCOC(=O)N1CCC(CN2CCC3(CC2)C[C@H](NC(C)=O)c2ccccc23)CC1 [compound 250] | 55 to 70 | + (activity was measured to be greater than or equal to 4.0 μM) | 65 to 85 | ++ (activity was measured to be between 0.7 μM and 3.0 μM) |  |  |  |  |  | 
